Here are results for 1 substance from US10973896B2, “Treatment or prevention of melanoma using photochemical internalization of a melanoma antigen” (PCI Biotech AS, priority 2014, dated 2021).

Type in all cases: in vivo, C57BL/6 mice
Test [1] relates to OVA-expressing B16 melanoma cells. Briefly: Prophylactic vaccination against intradermal melanoma challenge (Example 1). As to conditions: B16 cells intradermally five days after immunisation; FIG. 1D.
Test [2] has the same test system. The test can be described thus: Therapeutic vaccination of melanoma-bearing mice (Example 1). As to conditions: immunised after appearance of tumours under the skin; FIG. 2A.
The subject of another test is OVA-expressing B16 cells. The test can be described thus: Metastatic potential of melanoma, lung melanoma spots after intravenous B16 (Example 1). As to conditions: B16 melanoma cells given intravenously after immunisation; FIG. 4. Here is the method: C57BLJ6 mice were vaccinated as above with OVA with or without TPSC2a and challenged four days later with 500,000 OVA-expressing B16 cells given by intravenous injection. On day 19, mice were euthanized and spleens and lungs were harvested. The lungs were analysed by counting melanoma spots as a measure for metastasis. Spleen cells were analysed by flow cytometry for CD8 T-cell activation as described above.

Test [3] deals with SIINFEKL-specific CD8 T cells. The test can be described thus: PCI immunisation of OT-I-spiked mice, SIINFEKL pentamer flow cytometry (Example 2). Here is the method:
One day prior to the immunisation, spleens and lymph nodes were isolated from female OT-1 mice, and erythrocytes were removed by lysis (RBC Lysing Buffer Hybri-Max from Sigma-Aldrich) from the homogenised cell suspensions. The remaining cells were washed in PBS, filtered through 70 micron nylon strainers, and 2×10^6 OT-1 cells were administered by intravenous injection into recipient female C57BLJ6 mice; the adoptive transfer of SIINFEKL-specific CD8 T cells facilitates monitoring of the immune response by flow cytometry. One day or 8 hours later, mice were bled by tail bleeding, and the blood was collected in heparin-containing tubes for analysis of the baseline frequency of OVA-specific CD8 T cells.
Then, the mice were shaved on the abdominal area, and the vaccines, consisting of OVA or of a mixture of OVA and TPCS2a, were injected intradermally using syringes with 29G needles. The vaccines were kept light protected and used within 60 minutes of preparation. The vaccines were given in two injections of 50 μl each, on the left and right side of the abdominal mid line. OVA was tested at 10 to 100 μg per dose. The TPCS2a dose was 7.5 to 250 μg.
On day 0, prior to vaccination and on various days thereafter (e.g. day 6, 7, 8, 9, 14, 23, as indicated) mice were bled by tail bleeding and erythrocytes were removed by lysis, before analysis of antigen-specific CD8 T cells by flow cytometry. At the end of the experiment (typically 11, 12, 14 or 23 days), the mice were euthanized and the splenocytes analysed ex vivo. At various time points after the TPCS2a injection (0-48 hours), the mice were anaesthetised by intraperitoneal injection of a mixture of ketamine (25 mg/kg body weight) and xylazin (4 mg/kg) and placed on a light source (for illumination and activation of the photosensitiser TPCS2a). The light dose was 6 minutes, if not otherwise stated. The whole procedure is illustrated in the scheme of FIG. 6A. The illumination of mice using LumiSource™ is imaged in FIG. 6B.
(§1) The frequency of OVA-specific CD8 T-cells in blood was monitored by staining the cells with anti-CD8 antibody and H-2K^b/SIINFEKL ProS pentamer (Proimmune, Oxford, UK) for analysis by flow cytometry. The activation status of the cells was further analysed by testing the expression of CD44 and CD69 by flow cytometry. Intracellular staining for IFN-γ was done after overnight stimulation of splenocytes in 24-well plates with the CD8 epitope OVA257-264 (SIINFEKL) at 37 ° C. Brefeldin A was added during the last 4 hours. The cells were then washed and fixed with 4% formaldehyde in PBS for 10 min on ice. Anti-CD16/32 was added to block unspecific binding to Fc receptors. The cells were then permeabilised with 0.1% NP40 in PBS for 3 min and washed before staining with anti-IFN-γ, anti-CD8 and ant-CD44 antibodies (eBioscience or BD Pharmingen). The cells were acquired using FACSCanto (BD Biosciences, San Jose, USA) and analysed using FlowJo 8.5.2 software (Tree Star, Inc., Ashland, Oreg.).

In test [4] the test system is CD8, CD44 and IFN-γ positive cells. Briefly: Intracellular IFN-γ staining after SIINFEKL re-stimulation (Example 2). The procedure:
as §1

Test [5] relates to splenocytes re-stimulated with SIINFEKL
Briefly: IL-2 and IFN-γ ELISA of re-stimulated splenocytes (Example 2). As to conditions: day 11 splenocytes, 10 μg OVA alone, or with PCI at 25 μg TPCS2a. Here is the method: Alternatively, 2×10^5 splenocytes were re-stimulated in 96-well plates with OVA protein or the SIINFEKL. After 24 and 72 hours, supernatants were collected and analysed for IL-2 or IFN-γ by ELISA (eBioscience—performed according to the manufacturer's instructions).
(In general: An ELISA detects its analyte on a solid surface through an enzyme-linked reagent.)

Test [6] has as its system spleen cells restimulated by SIINFEKL peptide. Briefly: Poly(IC) and CpG experiment, IFN-gamma ELISA of restimulated spleen cells (Example 4). To be noted: day 14 spleen cells; FIG. 19B. Here is the method: For ELISA analysis 2×10^5 splenocytes were re-stimulated in 96-well plates with 0.005 μg/ml of the SIINFEKL peptide. After 72 hours, supernatants were collected and analysed for IFN-γ by ELISA (eBioscience—performed according to the manufacturer's instructions).
The experiment was performed as described under Materials and Methods, and mouse blood samples from day 7 after vaccination were analysed by flow cytometry as described. Spleen cells from day 14 were restimulated by SIINFEKL peptide and analysed by Interferon-gamma ELISA as described. All mice received OT-1 cells as described. • The following experimental groups were included: • 1. Untreated: Mice received OT-1 cells, but were not vaccinated or illuminated. • 2. OVA: Mice were vaccinated with 10 μg of OVA. They were not illuminated. • 3. OVA 100 μg: Mice were vaccinated with a mixture of 100 μg OVA. They were not illuminated. • 4. OVA 10 μg PCI: Mice were vaccinated with a mixture of 10 μg OVA+150 μg TPCS2a. Illuminated as described. • 5. CpG OVA: Mice were vaccinated with a mixture of 10 μg OVA+50 μg ODN2935 CpG oligonucleotide. They were not illuminated. • 6. CpG OVA/PCI: Mice were vaccinated with a mixture of 10 μg OVA+50 μg ODN2935 CpG oligonucleotide+150 μg TPCS2a. Illuminated as described. • 7. Poly(IC) OVA: Mice were vaccinated with a mixture of 10 μg OVA+50 μg Poly(IC). They were not illuminated. • 8. […]

Regarding “OVA: Chicken ovalbumin protein, model antigen expressed by the transfected B16 melanoma cells”, in test [1], the “mice that developed tumours” value is reported as “Fifty”. For the same substance, the “growth of established tumours” value in test [2] is “grew readily”. Besides, the “melanoma spots (lung metastases) on the lung, average” value with OVA-expressing B16 cells is given as “approx. 50”. For the same substance, in test [3] (10 μg OVA alone, data not shown), the “effect on SIINFEKL-specific CD8 T cells in blood as compared to untreated animals” value is listed as “no measurable effect”. Besides, the “activation markers CD44, CD25 and CD69 on SIINFEKL-specific cells in blood” value in test [3] (by day six) is recorded as “strong up-regulation”. For the same substance, in test [3] (day 23, OVA alone, or OVA plus TPCS2a illuminated two hours after administration), the “numbers of antigen-specific CD8 T cells” value is on record as “retracted to baseline levels”. In test [3] (day 54, 20 μg OVA with or without 200 μg TPCS2a, FIG. 14A), the “frequencies of measurable SIINFEKL-specific CD8 T cells in splenocytes” value is on record as “not different from untreated mice”. In addition, the “frequency of SIINFEKL-specific CD8 T cells in the peripheral blood” value in test [3] (day six, 100 μg OVA alone, or with 25 μg TPCS2a illuminated two hours after vaccination) is reported as “approximately 3.5%”. The “responders for IFN-γ production in splenocytes (better responders among mice tested)” value in test [4] (day 11, 10 μg OVA alone, or OVA and PCI (ten mice, 25 and 250 μg TPCS2a)) is “weak responders in all mice tested”. Besides, the “increase in frequency of IFN-γ-producing CD44-positive CD8 cells compared to control mice with OT-I transfer only” value in test [4] (day 14 PBMCs, OVA alone, or PCI with illumination at 2 hours) was found to be 4 fold. For the same substance, in test [4] (day 23, FIG. 7E right panel), the “frequencies of CD44-positive IFN-γ producing cells in splenocytes” value is “barely detectable frequencies”. In addition, the “IL-2 secretion by ELISA” value in test [5] (24 hours) is “weak but clearly measurable”. Also, the “IFN-γ secretion by ELISA” value in test [5] (72 hours) is on record as “not IFN-γ secretion”. Moreover, the “IFN-gamma ELISA after restimulation of spleen cells with SIINFEKL peptide” value in test [6] is listed as “virtually no effect”.
